This is an account of results in PubChem BioAssay (NCI).

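1) Cells in 96-well plates. 2) Compound, 48 h, 5 concentrations. 3) Linear interpolation between surrounding doses. 4) Unreached endpoint = highest concentration. At the GI50, growth is halved. Definition used: TGI = concentration required for complete inhibition of growth.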

What all share (experiment): inhibition of tumour cell growth, NCI panel, 48 h
Test [1] concerns CAKI-1 renal.
The test system of test [2] is MALME-3M melanoma.
Test [3] deals with A498 renal.
The subject of test [4] is SF-268 CNS.
The test system of test [5] is UACC-257 melanoma.
The subject of test [6] is K-562 leukemia.
Test [7] deals with COLO 205 colon.
Test [8] has as its system SF-295 CNS.
For test [9], the system named is SR leukemia.

Turning to `CC(=O)/C=C/c1ccc(C)cc1`, the TGI in [1], in test [2], in test [3], in test [4], in test [5] and in test [6] was more than 100 µM in each case. Further, the TGI in test [7] and in [8] was more than 100 µM each time.
Take `O=c1c2ccccc2nc(-c2cccc(Cl)c2)n1NCC1(O)OCC(O)C(O)C1O` (stereo unspecified): the TGI in [1], in test [2], in test [3], in test [4], in [5] and in test [6] was more than 100 µM each time. In addition, the TGI in test [7], in test [8] and in [9] was more than 100 µM throughout.
Consider `O=C(/C=C/c1ccccc1Cl)c1ccc(Cl)cc1Cl`, for which the TGI was determined as 28.4 µM in [1]; 33.5 µM in test [2]; 33.3 µM in [3]; 31.3 µM in test [4]; 29.7 µM in test [5]; 11.7 µM in test [6]. In addition, the TGI in [7] was determined as 32.1 µM; in [8], 36.3 µM.
Turning to `Cc1ccc(Oc2ccc([N+](=O)[O-])cc2[N+](=O)[O-])c(C)c1`, the TGI was more than 100 µM in [1]; more than 100 µM in [2]; more than 100 µM in test [3]; 99.6 µM in test [5]; more than 100 µM in [6]; more than 100 µM in test [8].
In the case of `Clc1ccc(Nc2ccnc(NCCCNc3ccnc4cc(Cl)ccc34)n2)cc1`, the GI50 in [1] is 1.43 µM; in [3] it was 1.29 µM; in test [5], 1.87 µM; in [8] it was 1.55 µM. Also, the TGI in test [1] worked out at 2.83 µM; in [3], 2.66 µM; in test [5], 3.43 µM; in test [8], 2.96 µM.
On to `COc1cc2c(cn1)[nH]c1ccccc12`, for which the TGI in test [1], in [2], in test [4], in [5], in test [6] and in test [7] was more than 100 µM in each case. Further, the TGI in test [8] and in test [9] was more than 100 µM throughout.
In the case of `C1=Nc2ccccc2C=Nc2ccccc2C=Nc2ccccc2C=Nc2ccccc21.[Cl-].[Pt+2]`, the GI50 in [1] is 31.4 µM; in test [3], 23.2 µM; in test [4] it was 25.1 µM; in test [6], 3.61 µM; in test [7], 17.3 µM. Also, the TGI in test [1] was determined as 62.5 µM; in test [3] it was 61.5 µM; in test [4], 75.9 µM; in test [6], 93.7 µM; in test [7] it was 51.4 µM.
Regarding `Cc1c2c(cc3c(=O)ccn(CCN(C)C)c13)c(=O)ccn2CCN(C)C`, the TGI in test [1] stood at 67.8 µM; in test [2] it was 69.1 µM; in test [3] it was 38 µM; in test [4] it was 21.8 µM; in [5], 33.7 µM; in [6], 44.9 µM. In addition, the TGI in test [7] worked out at 24.7 µM; in [8], 25.4 µM; in test [9], 37.6 µM.
For the compound `Cc1cccc(C)c1NC(=O)CCc1n[nH]c(=S)o1`, the TGI in [1], in [2], in test [3], in test [4], in test [5] and in test [6] was more than 100 µM in each case. For the same compound, the TGI in test [7] was 85.1 µM; in [8] it was more than 100 µM.
In the case of `N#Cc1ccc2c(c1)C(=O)c1c-2n(CCCN)c(=O)c2cc([N+](=O)[O-])ccc12`, the GI50 in test [1] was 0.0285 µM; in [3] it was 1.09 µM; in test [4], 0.0846 µM; in test [5], 0.637 µM; in test [6], 0.185 µM; in test [7] it was 0.518 µM. Besides, the GI50 is 0.0382 µM in test [8] and 0.0184 µM in test [9]. The TGI in [1] was found to be 1.54 µM; in [3] it was 2.44 µM; in [4] it was 1.51 µM; in test [5], 2.43 µM; in test [6] it was 3.97 µM; in test [7] it was 2.09 µM. The TGI came to 1.49 µM in [8] and 1.26 µM in [9].
With `Cc1ccc2c(c1)CNc1ccc(C)cc1CN2`, the TGI in test [1], in test [4], in test [6], in test [7], in test [8] and in test [9] was more than 100 µM in each case.
With `COc1ccc(-c2c(N)[n+]([O-])c3ccccc3[n+]2[O-])cc1OC`, the TGI in test [1], in [2], in test [3], in test [4], in test [5] and in test [6] was more than 100 µM each time. Also, the TGI in test [7], in [8] and in test [9] was more than 100 µM throughout.
In the case of `COc1cc(Nc2nc3ccc(C(F)(F)F)cc3nc2-c2ccccc2)cc(OC)c1OC`, the TGI in test [1] was 79.4 µM; in [2] it was more than 100 µM; in test [3], 78 µM; in test [4] it was more than 100 µM; in test [5], 85 µM; in test [6] it was more than 100 µM. The TGI in test [8] is 11.6 µM; in test [9], more than 100 µM.
Turning to `NNC(=O)/C(NC(=O)c1ccccc1)=C(\N)c1ccc(Cl)cc1`, the TGI in test [1], in [2], in test [3], in test [4], in [5] and in test [6] was more than 100 µM throughout. Also, the TGI in test [7], in test [8] and in [9] was more than 100 µM in each case.
With `N#CC1C2CCC3(CC2CCN1C(=O)c1ccccc1)OCCO3` (stereo unspecified), the TGI in [2], in test [3], in test [4], in test [5], in test [6] and in test [7] was more than 100 µM throughout. Further, the TGI in [8] and in test [9] was more than 100 µM throughout.
Consider `O=C(NCc1ccncc1)C1COc2cc(-c3cc(=O)c4ccccc4o3)ccc2O1` (stereo unspecified), for which the TGI in test [2], in test [5], in test [6], in test [8] and in test [9] was more than 100 µM throughout.
Turning to `CC(C)CN(CC(C)C)C(=O)C1CCCC[C@@H]1C(=O)O` (stereo partly specified), the TGI in test [1], in [2], in test [3], in [4], in test [5] and in [6] was more than 100 µM each time. Besides, the TGI in test [7], in [8] and in test [9] was more than 100 µM each time.
As for `O=c1c2cccnc2ncn1CCN1CCCC1`, the TGI in test [1], in test [2], in test [4], in test [6], in [7] and in test [8] was more than 100 µM each time. In addition, the TGI in [9] is more than 100 µM.
Take `CCSc1nnc(-c2ccc3ccccc3c2O)n1-c1ccc(Cl)cc1`: the GI50 is 6.85 µM in test [1]; more than 100 µM in test [2]; more than 100 µM in [3]; 26.1 µM in test [4]; more than 100 µM in [5]; 4.04 µM in [6]. Moreover, the values for the GI50 in [7], in [8] and in test [9] were 47.4 µM, 4.24 µM and 3.86 µM, respectively. The TGI in [1], in test [2], in test [3], in test [4], in test [5] and in test [6] was more than 100 µM throughout. In addition, the TGI in test [7], in test [8] and in test [9] was more than 100 µM each time.
On to `Cn1cnc([N+](=O)[O-])c1Sc1nnnn1-c1ccccc1`, for which the TGI in [1] came out at 30.1 µM; in [2] it was 21.3 µM; in [3], 38.9 µM; in test [4] it was 39.4 µM; in test [5], 27.6 µM; in test [6] it was 19.9 µM. Moreover, the values for the TGI in [7] and in test [8] were 20.7 µM and 39.7 µM, respectively.
With `COc1cc2c(cc1OCCCCOc1ccc(-c3nc4ccccc4s3)cc1)N=C[C@@H]1CCCN1C2=O`, the GI50 in test [1] was 0.769 µM; in test [3] it was 1.99 µM; in test [4], 0.998 µM; in test [5] it was 2.63 µM; in test [6], 0.301 µM; in test [7] it was 0.655 µM. In addition, the GI50 is 1.22 µM in test [8] and 0.276 µM in test [9]. The TGI in test [1] was found to be 10.8 µM; in [3], 4.34 µM; in test [4], 3.58 µM; in test [5] it was 7.06 µM; in test [6], 4.91 µM; in [7] it was 1.76 µM. Further, the figures for the TGI in test [8] and in test [9] were 8.81 µM and 1.12 µM, respectively.
As to `CC/C=C/c1cc2cc[nH]c2c2c1C(C)C[C@@H]2C` (stereo partly specified), the TGI in test [1] is more than 100 µM; in test [2], more than 100 µM; in [3], 32.7 µM; in test [5], more than 100 µM; in test [6] it was 65.9 µM; in test [7], 37.6 µM. In [8], this compound registered a TGI of 55.9 µM.
Regarding `C=CCn1cc(C(=O)NC(=O)NCCCCCOC(=O)CCCCCCCCCCC(=O)OCCCCCNC(=O)NC(=O)c2cn(CC=C)c(=O)n(C)c2=O)c(=O)n(C)c1=O`, the TGI in test [1], in test [2], in [3], in test [4], in [5] and in test [6] was more than 100 µM each time. The compound also had a TGI in test [7] of more than 100 µM.
As to `CC1(O)CCC2(C#N)CCC1C2O` (stereo unspecified), the TGI in test [1], in test [2], in test [3], in [4], in test [5] and in test [6] was more than 100 µM throughout. Moreover, the TGI in test [7] was more than 100 µM; in [8], more than 100 µM; in test [9], 45.4 µM.
Take `S=c1nc(N2CCCCC2)ss1`: the TGI is more than 100 µM in test [1]; 35.6 µM in test [2]; 43.3 µM in test [3]; 49.5 µM in test [4]; 49.9 µM in test [5]; 52.1 µM in test [6]. The TGI in test [8] came out at 81.4 µM; in test [9] it was 45.4 µM.
As for `C1COCCOCCOCCOCCO1.CC(=O)[CH-]C(C)=O.CC(=O)[CH-]C(C)=O.CC(=O)[CH-]C(C)=O.[V]`, the GI50 in [1] is 15 µM; in [2], 2.99 µM; in test [3], 25 µM; in test [4] it was 20.6 µM; in test [5] it was 12.1 µM; in [6], 29.1 µM. For the same compound, the results for the GI50 in test [7] and in test [8] were 18.7 µM and 7.9 µM, respectively. Besides, the TGI is 33.2 µM in test [1]; 16.4 µM in test [2]; 66.3 µM in test [3]; 65.8 µM in [4]; 25.3 µM in test [5]; 71.4 µM in [6]. In addition, the TGI in test [7] was found to be 35.1 µM; in test [8] it was 22 µM.
Take `Cc1cc2cn3c4cccnc4[nH]c(=O)c3c2cc1C`: the GI50 in test [1] was 1.42 µM; in test [3] it was 3.8 µM; in test [5] it was 1.67 µM; in [7], 1.65 µM; in [8] it was 1.51 µM. The TGI in [1] amounted to 2.92 µM; in test [3], 18.5 µM; in test [5], 3.41 µM; in test [7], 3.18 µM; in test [8], 3.26 µM.
`COc1cc(/C=C(\OC(C)=O)c2ccc3c(c2)OCO3)cc(OC)c1OC`: the TGI is more than 100 µM in [1]; 59.7 µM in test [2]; 71.4 µM in [3]; 67.5 µM in [4]; 34 µM in test [5]; more than 100 µM in test [6]. The results for the TGI in test [7], in [8] and in test [9] were 51.5 µM, 98.6 µM and more than 100 µM, respectively.
For `N#C/C(=C\c1ccc(C(O)P(=O)(O)O)cc1)C(N)=O` (stereo unspecified), the TGI in [2], in test [3], in [4], in test [5], in test [6] and in test [7] was more than 100 µM each time. The TGI in test [8] is more than 100 µM.
